Patent US20250074871A1, “PHENETHYLAMINES AND METHODS OF PREPARATION THEREOF” (priority 2022, published 2025)
Values joined by “and” are separate entries in the source; they are usually repeats but may differ in a detail not shown here. Equal values may be shown once. Read-outs that look alike come from different tables or passages of the source.

Columns and labels:
[1] = in vitro hepatocyte clearance, mouse; type: in vitro ADME; conditions: Mouse hepatocytes; for hepatocyte CLint: read-out: In vitro Clint (μL/min/10^6 cells); for half-life: read-out: In vitro T1/2; for CLint scaled: read-out: Scale-up Clint
Procedure: (§1) Additional experimentation was performed on compound 109. Table 6 summarizes, among other things, the anticipated hepatic clearance of compound 109 in various species, as specified in Table 6 and as determined by calculating the in vitro hepatocyte clearance over time and scaling such rate with such species' hepatocyte count and the anticipated liver blood flow rate in such species.

hepatocyte [2] = test: in vitro hepatocyte clearance, mouse; type: in vitro ADME; conditions: Mouse
Procedure: as §1

5-HT1A = target: T1, 5-HT1A (Homo sapiens, UniProt P08908); test: 5-HT receptor activity panel (Table 3); type: cell-based; conditions: Table 3
T1 sequence (P08908 1-422): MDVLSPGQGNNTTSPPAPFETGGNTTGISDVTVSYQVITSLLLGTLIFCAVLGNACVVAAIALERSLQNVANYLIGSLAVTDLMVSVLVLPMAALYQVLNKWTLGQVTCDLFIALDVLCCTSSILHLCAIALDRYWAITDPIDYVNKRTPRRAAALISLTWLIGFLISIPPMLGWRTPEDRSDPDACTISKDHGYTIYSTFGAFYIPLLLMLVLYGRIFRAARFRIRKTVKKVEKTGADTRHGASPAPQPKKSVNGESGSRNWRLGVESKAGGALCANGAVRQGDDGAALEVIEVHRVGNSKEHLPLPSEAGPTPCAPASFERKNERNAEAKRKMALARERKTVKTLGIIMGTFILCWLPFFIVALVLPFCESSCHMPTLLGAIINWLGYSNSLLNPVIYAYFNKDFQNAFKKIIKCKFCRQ

5-HT5A = 5-HT5A (Homo sapiens, UniProt P47898); test: 5-HT receptor activity panel (Table 3); type: cell-based; conditions: Table 3
[3] = plasma and brain PK predicted in humans; conditions: Human (predicted); for Kp: brain; for clearance: read-out: Cltot (converted); for half-life: read-out: T1/2 Vz (converted); for Vd: read-out: Vz
Source text: Table 7a and Table 7b summarize, among other things, the observed plasma and Brain P K properties in animals, and the observed plasma and Brain P K properties predicted in humans, for compound 109 in Table 7a and compound 93 for Table 7b: […]

[4] = target: T2, human ether-a-go-go-related gene (hERG) K+ channel (Homo sapiens, UniProt Q12809); test: Eurofins hERG Qube APC Assay; type: cell-based; conditions: for IC50 (hERG)/EC50 (5-HT2A) ratio: Table 4
T2 construct: Eurofins
Source text: As used herein and unless otherwise specified, the term “hERG risk” refers to the risk of a compound potentially inhibiting the human ether-a-go-go-related gene (hERG) K^+ channel, thereby leading to QT prolongation.
As a result of, many compounds disclosed in Table 1 and Table 2 were screened for the potential of “hERG risk” using pharmacological assays (e.g. Eurofins™ hERG Qube APC Assay). […].

5-HT1D = 5-HT1D (Homo sapiens, UniProt P28221); test: 5-HT receptor activity panel (Table 3); type: cell-based; conditions: Table 3
5-HT1F = target: T3, 5-HT1F (Homo sapiens, UniProt P30939); test: 5-HT receptor activity panel (Table 3); type: cell-based
T3 sequence (P30939 1-366): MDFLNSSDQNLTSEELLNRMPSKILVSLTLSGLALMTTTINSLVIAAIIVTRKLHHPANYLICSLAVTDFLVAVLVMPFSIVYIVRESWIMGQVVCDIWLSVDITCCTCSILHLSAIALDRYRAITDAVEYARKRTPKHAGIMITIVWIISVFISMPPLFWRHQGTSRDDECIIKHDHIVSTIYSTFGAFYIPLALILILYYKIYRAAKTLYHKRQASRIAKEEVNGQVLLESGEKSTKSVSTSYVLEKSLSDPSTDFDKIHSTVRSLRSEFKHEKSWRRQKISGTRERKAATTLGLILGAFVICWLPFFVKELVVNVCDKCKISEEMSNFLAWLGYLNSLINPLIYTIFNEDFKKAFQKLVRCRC

5-HT7 = 5-HT7 (Homo sapiens, UniProt P34969); test: 5-HT receptor activity panel (Table 3); type: cell-based
5-HT6 = 5-HT6 (Homo sapiens, UniProt P50406); test: 5-HT receptor activity panel (Table 3); type: cell-based
5-HT2C receptor = target: T4, 5-HT2C receptor (Homo sapiens, UniProt P28335); test: cell-based; type: cell-based; conditions: for 5-HT2C BRET Eff %: normalized to % 5-HT stimulation
T4 construct: expressed in transfected cells; host or cells: HEK293T
T4 sequence (P28335 33-458): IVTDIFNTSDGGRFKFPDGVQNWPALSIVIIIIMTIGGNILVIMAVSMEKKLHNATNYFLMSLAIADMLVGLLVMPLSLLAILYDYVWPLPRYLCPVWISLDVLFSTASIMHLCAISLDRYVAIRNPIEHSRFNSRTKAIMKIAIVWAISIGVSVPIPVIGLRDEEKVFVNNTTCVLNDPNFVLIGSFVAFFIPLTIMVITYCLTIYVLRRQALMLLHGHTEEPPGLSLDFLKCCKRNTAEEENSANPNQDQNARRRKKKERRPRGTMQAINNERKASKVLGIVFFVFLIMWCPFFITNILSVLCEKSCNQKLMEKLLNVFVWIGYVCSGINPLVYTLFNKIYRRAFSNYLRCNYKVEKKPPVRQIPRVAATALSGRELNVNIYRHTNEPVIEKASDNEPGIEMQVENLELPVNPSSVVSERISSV

[5] = in vitro hepatocyte clearance, human; type: in vitro ADME; conditions: Human hepatocytes; for hepatocyte CLint: read-out: In vitro Clint (μL/min/10^6 cells); for half-life: read-out: In vitro T1/2; for CLint scaled: read-out: Scale-up Clint
Procedure: as §1

hepatocyte [6] = test: in vitro hepatocyte clearance, human; type: in vitro ADME; conditions: Human
Procedure: as §1

[7] = Table 2, at least three replicate trials, read-out: 5-HT2C BRET EC50
[8] = Table 3 panel, read-out: 5-HT2C EC50

Chain of 5-HT5A (P47898 whole entry, species assumed): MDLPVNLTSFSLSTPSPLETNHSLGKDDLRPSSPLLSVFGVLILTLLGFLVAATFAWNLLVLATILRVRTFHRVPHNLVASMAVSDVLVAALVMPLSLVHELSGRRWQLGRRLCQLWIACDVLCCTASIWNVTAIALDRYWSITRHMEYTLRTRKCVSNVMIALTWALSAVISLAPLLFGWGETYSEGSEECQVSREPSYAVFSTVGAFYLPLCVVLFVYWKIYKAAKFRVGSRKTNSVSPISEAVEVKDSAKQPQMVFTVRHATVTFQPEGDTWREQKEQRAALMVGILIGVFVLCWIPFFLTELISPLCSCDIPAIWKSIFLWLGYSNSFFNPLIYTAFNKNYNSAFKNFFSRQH
T2 sequence (Q12809 whole entry): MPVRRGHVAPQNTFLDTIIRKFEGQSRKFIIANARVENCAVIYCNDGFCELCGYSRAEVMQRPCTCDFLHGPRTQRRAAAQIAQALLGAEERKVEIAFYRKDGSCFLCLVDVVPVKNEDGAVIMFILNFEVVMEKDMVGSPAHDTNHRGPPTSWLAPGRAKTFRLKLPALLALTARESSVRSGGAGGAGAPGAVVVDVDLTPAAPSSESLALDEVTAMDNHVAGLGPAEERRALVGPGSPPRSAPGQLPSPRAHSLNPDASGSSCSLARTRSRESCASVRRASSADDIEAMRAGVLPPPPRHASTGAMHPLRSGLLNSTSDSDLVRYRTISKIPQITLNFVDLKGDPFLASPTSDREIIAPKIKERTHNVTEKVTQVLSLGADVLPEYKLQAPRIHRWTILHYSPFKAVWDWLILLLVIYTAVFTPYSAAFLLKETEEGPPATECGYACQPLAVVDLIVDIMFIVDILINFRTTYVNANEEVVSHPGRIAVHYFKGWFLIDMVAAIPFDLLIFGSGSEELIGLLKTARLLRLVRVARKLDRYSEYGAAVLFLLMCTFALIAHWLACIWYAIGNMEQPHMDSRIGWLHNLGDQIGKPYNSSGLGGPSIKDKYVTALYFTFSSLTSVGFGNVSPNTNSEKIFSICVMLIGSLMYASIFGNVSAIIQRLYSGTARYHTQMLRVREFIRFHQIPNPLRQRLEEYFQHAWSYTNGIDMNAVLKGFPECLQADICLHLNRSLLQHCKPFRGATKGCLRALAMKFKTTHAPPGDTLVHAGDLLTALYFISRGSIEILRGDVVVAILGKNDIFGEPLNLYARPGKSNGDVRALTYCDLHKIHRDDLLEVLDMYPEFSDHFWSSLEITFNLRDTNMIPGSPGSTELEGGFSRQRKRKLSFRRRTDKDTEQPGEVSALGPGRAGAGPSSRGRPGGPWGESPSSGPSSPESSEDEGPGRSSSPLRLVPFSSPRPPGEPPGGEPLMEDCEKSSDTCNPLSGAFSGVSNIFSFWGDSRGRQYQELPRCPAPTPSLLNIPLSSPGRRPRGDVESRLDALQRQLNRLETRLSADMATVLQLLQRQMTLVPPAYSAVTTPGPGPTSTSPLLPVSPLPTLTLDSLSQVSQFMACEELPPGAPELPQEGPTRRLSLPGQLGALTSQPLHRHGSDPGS
Chain of 5-HT6 (P50406 whole entry, species assumed): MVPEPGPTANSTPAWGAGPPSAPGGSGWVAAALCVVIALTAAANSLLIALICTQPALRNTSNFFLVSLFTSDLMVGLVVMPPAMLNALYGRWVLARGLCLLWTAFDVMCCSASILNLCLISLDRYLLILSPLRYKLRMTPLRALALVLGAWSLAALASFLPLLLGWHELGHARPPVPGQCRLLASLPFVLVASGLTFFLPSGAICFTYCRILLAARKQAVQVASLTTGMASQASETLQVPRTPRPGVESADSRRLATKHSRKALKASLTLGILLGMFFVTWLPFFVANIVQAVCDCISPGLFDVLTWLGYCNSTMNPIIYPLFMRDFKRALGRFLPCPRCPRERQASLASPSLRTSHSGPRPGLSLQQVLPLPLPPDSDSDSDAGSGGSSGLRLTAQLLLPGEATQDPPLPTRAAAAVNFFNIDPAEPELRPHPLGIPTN
Chain of 5-HT1D (P28221 whole entry, species assumed): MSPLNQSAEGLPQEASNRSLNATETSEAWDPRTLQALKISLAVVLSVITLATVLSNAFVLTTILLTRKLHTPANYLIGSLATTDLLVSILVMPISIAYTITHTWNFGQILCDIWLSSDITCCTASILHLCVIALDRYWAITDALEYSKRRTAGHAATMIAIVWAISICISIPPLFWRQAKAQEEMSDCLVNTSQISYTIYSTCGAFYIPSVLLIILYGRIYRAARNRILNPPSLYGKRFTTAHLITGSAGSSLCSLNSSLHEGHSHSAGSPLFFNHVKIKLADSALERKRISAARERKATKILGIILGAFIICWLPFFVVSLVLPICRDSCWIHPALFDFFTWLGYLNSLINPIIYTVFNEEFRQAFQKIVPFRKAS
Chain of 5-HT7 (P34969 whole entry, species assumed): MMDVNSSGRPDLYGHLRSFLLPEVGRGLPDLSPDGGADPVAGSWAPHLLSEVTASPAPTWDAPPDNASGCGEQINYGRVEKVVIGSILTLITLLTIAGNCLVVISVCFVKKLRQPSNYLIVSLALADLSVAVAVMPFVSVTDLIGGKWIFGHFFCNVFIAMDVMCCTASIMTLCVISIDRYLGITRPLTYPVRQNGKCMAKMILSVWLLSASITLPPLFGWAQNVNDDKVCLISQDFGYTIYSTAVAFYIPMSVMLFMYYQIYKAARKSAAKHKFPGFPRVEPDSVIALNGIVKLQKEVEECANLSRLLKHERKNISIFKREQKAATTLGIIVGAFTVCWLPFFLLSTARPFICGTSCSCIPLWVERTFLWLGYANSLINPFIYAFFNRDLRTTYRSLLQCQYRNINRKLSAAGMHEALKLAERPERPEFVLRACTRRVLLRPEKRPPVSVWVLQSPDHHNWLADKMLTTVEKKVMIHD

Compound	hepatocyte CLint [1] [µL/min/1e6 cells]	half-life [1] [min]	CLint scaled [1] [mL/min/kg]	Predicted hepatic CL (hepatocyte [2]) [mL/min/kg]	clearance ([3]; plasma) [mL/min/kg]	half-life ([3]; plasma) [min]	Vd ([3]; plasma) [L/kg]	IC50 [4] [µM]	IC50 (hERG)/EC50 (5-HT2A) ratio [4]	5-HT1F Eff, % (5-HT1F; Table 3) [%]	5-HT6 Eff, % (5-HT6; Table 3) [%]	EC50 (5-HT2C receptor; [7])	5-HT2C BRET Eff % (5-HT2C receptor; Table 2)	5-HT2C Eff, % (5-HT2C receptor; Table 3 panel) [%]	EC50 (5-HT2C receptor; [8]) [µM]	hepatocyte CLint [5] [µL/min/1e6 cells]	half-life [5] [min]	CLint scaled [5] [mL/min/kg]	Predicted hepatic CL (hepatocyte [6]) [mL/min/kg]	other results
COc1cc(C(F)(F)F)ccc1CCNCc1ccccc1O [Cpd #93]	< 614	> 2.26	< 7250	<88.90	37.9	117	6.39	0.62	517	69	−12	0.0011 µM and 0.0013 µM	105% and 103%	99	0.0015	54.8	25.3	140	18.03	5-HT1A EC50, nM (5-HT1A): Not active; 5-HT5A EC50, nM (5-HT5A): Not active; Kp ([3]; read-out: Brain/plasma Ratio): 9.55; 5-HT1D EC50, nM (5-HT1D): Not active; EC50 (5-HT1F): 8.09 µM; EC50 (5-HT7): 0.0005 µM; 5-HT7 Eff, % (5-HT7; Table 3): −12%; EC50 (5-HT6): 0.0006 µM
CSc1ccccc1CNCCc1ccc(C#N)cc1O [Cpd #109]	> 614	< 2.26	> 7250	>88.90	16.2	120	2.78	2.9	604	12	18	0.253 µM	114%	110	0.225	609	2.28	1550	20.43	Hepatic Extraction Ratio (E) (hepatocyte [2]): >0.99; 5-HT1A Eff, % (5-HT1A): 3%; EC50 (5-HT1A; read-out: 5-HT1A EC50): 4.27 µM; 5-HT5A Eff, % (5-HT5A): −133%; EC50 (5-HT5A; read-out: 5-HT5A EC50): 12.3 µM; Kp ([3]; read-out: Brain Plasma AUC Ratio): 2.14; bioavailability ([3]; plasma, IM, read-out: IM f (%)): 100%; 5-HT1D Eff, % (5-HT1D): 6%; EC50 (5-HT1D; read-out: 5-HT1D EC50): 0.379 µM; EC50 (5-HT1F; Table 3, read-out: 5-HT1F EC50): 0.582 µM; 5-HT7 EC50, nM (5-HT7; Table 3): Not active; EC50 (5-HT6; Table 3, read-out: 5-HT6 EC50): 5.39 µM; Hepatic Extraction Ratio (E) (hepatocyte [6]): 0.99
